Test results from patent publication US20260256741A1, “ANTICANCER MALEIMIDE DERIVATIVES FOR USE WITH IMMUNE CHECKPOINT BLOCKADE” (BROWN UNIVERSITY, priority 2022, published 2026).

What was measured:
NK-92 cells = assay: Cytokine profiling of cell culture supernatant (Luminex 200), NK-92; assay type: cell-based, human
Method: Cells were plated at 3.5×10^4 cells in a 48-well plate (Thermo Fisher Scientific, Waltham, MA, USA) in complete medium and incubated at 37° C. with 5% CO2. At 24 hours after plating, almost all the tumor cells were adherent to the bottom of the flask and the complete medium was replaced with the drug-containing medium. […] On the day of analysis, samples were thawed and centrifuged to remove cellular debris.
(§1) Human cell line culture supernatants were analyzed using an R&D systems Human Premixed Multi-Analyte Kit (R&D Systems, Inc., Minneapolis, MN, USA) and a Luminex 200 (RRID: SCR_018025) Instrument (LX200-XPON-RUO, Luminex Corporation, Austin, TX, USA) according to the manufacturer's instructions. Sample levels of TNF-α, 4-1BB/TNFRSF9/CD137, IL-8/CXCL8, Ferritin, IFN-β, IL-10, CCL2/JE/MCP-1, VEGF, CXCL13/BLC/BCA-1, IFN-γ, CCL20/MIP-3 α, CCL3/MIP-1 α, CCL22/MDC, CCL4/MIP-1 β, Fas Ligand/TNFSF6, IL-17/IL-17A, IL-2, BAFF/BLyS/TNFSF13B, GM-CSF, CXCL5/ENA-78, TRANCE/TNFSF11/RANK L, CXCL9/MIG, G-CSF, IFN-γ R1/CD119, VEGFR3/Flt-4, C-Reactive Protein/CRP, CXCL11/I-TAC, IL-21, CXCL14/BRAK, IL-6, Fas/TNFRSF6/CD95, TRAIL R3/TNFRSF10C, IL-4, CCL5/RANTES, PD-L1/B7-H1, CCL7/MCP-3/MARC, Chitinase 3-like 1, CXCL10/IP-10/CRG-2, IL-1 β/IL-1F2, IL-7, Prolactin, CCL8/MCP-2, TRAIL R2/TNFRSF10B, M-CSF, IL-15, Granzyme B, IFN-α, TREM-1, IL-12/IL-23 p40, TRAIL/TNFSF10, CCL11/Eotaxin, and IL-18/IL-1F4. Quantitative analysis with 6 standards and a minimum of 50 counts per bead region was used with the Luminex to generate analyte values reported as picograms/milliliter (pg/mL). Sample concentrations less than the lower limit of detection for each particular analyte were recoded as the lower limit value divided by ten. Sample concentrations above the upper limit of detection for a particular analyte were recoded as the upper limit of detection.

SW480 MSS CRC cells = assay: Multicolor co-culture of SW480 CRC cells and TALL-104 T cells, EthD-1 dead cells; assay type: cell-based, human; details: for percentage of dead cells out of total cells (average, normalized): 24 hours, 1:1 E:T
Method: 10,000 HCT-116, SW480, or HT-29 cells were plated per well in a clear-bottom, black-walled 48-well tissue culture plate and were allowed to adhere overnight. […] CRC cells were labeled using CellTracker™ Green CMFDA (5-chloromethylfluorescein diacetate), immune cells (NK-92, TALL-104) were labeled using CellTracker™ Blue CMAC Dye (7-amino-4-chloromethylcoumarin), and ethidium homodimer-1 (EthD-1) was used as a marker of cell death (Invitrogen, Waltham, MA). 10× images were captured using a Nikon Ti-U Inverted Fluorescence Microscope and NIS-Elements F Package imaging software 3.22.00 Build 710 (Nikon Instruments Inc, USA). The number of red/green color cells in random fields was determined using thresholding and particle analysis in the Fiji modification (RRID: SCR_002285) of ImageJ and expressed as a dead/live cell ratio. Normalization was carried out by subtracting the percentage of cell death due to drug or vehicle control (DMSO) only from the percentage of dead cells observed in the co-culture of tumor and immune cells treated with the drug. At least 100 cells were evaluated per sample, with 3 independent replicates. Statistical analysis was done using GraphPad Prism 9 (RRID: SCR_002798).

TALL-104 cells = assay: 10x single-cell sequencing, TALL-104; assay type: cell-based, human; details: 1 μM, 24 hours vs DMSO
Method: Single cells were captured and 3′ single-cell gene expression libraries were conducted (Next GEM v3.1) using the 10× Genomics Chromium system by SingulOmics (SingulOmics, New York, NY, USA). Gene expression libraries were sequenced with ~200 million PE150 reads per sample on Illumina (RRID: SCR_016387) NovaSeq (Illumina, Inc., San Diego, CA, USA). After sequencing clean reads were then analyzed with human reference genome GRCh38 using Cell Ranger v6.1.2 ([RRID: SCR_017344],10× Genomics, Pleasanton, CA, USA). Data were analyzed and visualized using Loupe Browser ([RRID: SCR_018555], 10× Genomics, Pleasanton, CA, USA).

[1] = system: CRC (HCT-116, HT-29) and TALL-104 cells; assay: Pyroptotic events in 40x co-culture images; assay type: cell-based, human
Method: 5000 HT-29 GFP+ or HCT 116 GFP+ cells were plated per well in a clear-bottom, black-walled 96-well tissue culture plate and were allowed to adhere overnight. Cells were subsequently treated with DMSO, 5 μM elraglusib, and/or 5000 TALL-104 or NK-92 cells (for an effector-to-tumor ratio of 1:1) for 48 hours. Nine images were taken per well at 10× magnification using a Molecular Devices ImageXpress® Confocal HT.ai High-Content Imaging System and quantified for the number of GFP+ objects using the MetaXpress (RRID: SCR_016654) software (Molecular Devices, San Jose, CA, USA). 40× Images were also taken at 24 hours for representative images of cellular morphology changes. Statistical analysis was done using GraphPad Prism 9 (RRID: SCR_002798).

[2] = Patient plasma cytokine profiling (Luminex 200), Phase 1 trial; assay type: in vivo, human
Method: as §1, with “Sample concentrations above the upper limit of detection for a particular analyte were recoded as the upper limit of detection.” left out

Question: Which results are given for `Cn1cc(C2=C(c3coc4ccc(F)cc34)C(=O)NC2=O)c2cc3c(cc21)OCO3` [elraglusib, 3-(5-fluorobenzofuran-3-yl)-4-(5-methyl-5H-[1,3]dioxolo[4,5-f]indol-7-yl)-1H-pyrrole-2,5-dione]?
Answer: IFN-γ concentration in supernatant (NK-92 cells; 1 μM, 48 hours): increases; TRAIL concentration in supernatant (NK-92 cells; 1 μM, 48 hours): increases; secreted granzyme B concentration (NK-92 cells; 1 μM, 48 hours): decreases; IFN-γ in cell culture supernatant (NK-92 cells; 24 hours treatment vs DMSO): significant increase in IFN-γ; percentage of dead cells out of total cells (average, normalized) (SW480 MSS CRC cells; co-culture with TALL-104, 5 μM): 60%; percentage of dead cells out of total cells (average, normalized) (SW480 MSS CRC cells; co-culture with TALL-104, 10 μM): 65%; tumor cell death in SW480 monocultures (SW480 MSS CRC cells; drug only, no immune cells): limited tumor cell death; percentage of dead cells (average, normalized) (SW480 MSS CRC cells; tumor cells pre-treated with 5 μM for 24 hours, then 24-hour co-culture with TALL-104): 65%; immune cell activation marker CD69 expression (TALL-104 cells): increase; immune cell chemoattractant CXCR4 expression (TALL-104 cells): increase; immunosuppressive marker CHI3L1 expression (TALL-104 cells): decrease; pyroptotic events ([1]; co-culture of CRC and TALL-104 cells with 5 μM elraglusib): significant increase in pyroptotic events; pyroptotic events ([1]; drug-only condition, no immune cells): did not observe any pyroptotic events; plasma cytokines, chemokines and growth factors (many of the analytes) vs baseline ([2]; 8- and 24-hours post-dose): upregulated; plasma expression of many of the analytes in the panel ([2]; patients receiving a 7 mg/kg dose, 8- and 24-hour post-dose): increased expression
